Data taken from patent publication US8372971B2, “Heterocyclic compounds and methods of use” (TargeGen, Inc., priority 2004, dated 2013).
Structures can show the parent of a compound that is named as a salt.

Key:
HUVECs = assay: XTT cell viability assay (Example 28); assay type: cell-based; conditions: Homo sapiens, HUVEC, 24-48 hours, read-out: Inhibition of HUVEC cell prolifiration (IC50)
Description: XTT assay: HUVECs were seeded at 10,000 cells/well of a tissue culture treated 96-well plate treated with collagen type I and grown overnight in the complete EGM-2 media as described above. The following morning, the inhibitors were serial diluted with DMSO and added to the cells with a final DMSO concentration of 1%. After 24-48 hours cell viability was measured with an XTT assay (Sigma, St. Louis, Mo.). The cells were also photographed to compare morphological differences to the XTT trends observed. Determination of the IC50 values was performed with quantitative software (Prism software package, GraphPad Software, San Diego Calif.).

[1] = tested on: p-MEK and p-ERK levels in HUVECs; assay: Western Blot, inhibition of MAPK pathway in cellular assay (Example 27); assay type: cell-based, human; conditions: at 5 uM, 50 ng/ml VEGF or FGF
Description: Western Blot: Early passage primary human umbilical vein endothelial cells (HUVECs) were maintained in EGM-2 containing SingleQuots (Cambrex, East Rutherford, N.J.), 10% FBS, 10 mM HEPES, and 50 μg/ml gentamicin. Prior to treatment of the cells with inhibitor, the HUVECs were starved for 18 h by replacing serum-containing complete media with scrum-free and SingleQuot-free media. The starved cells were pre-treated with inhibitors for 60 min at various concentrations (0-20 μM). Next the HUVECs were treated with 50 ng/ml VEGF or FGF (Peprotech, Rocky Hill, N.J.) for 6 min and the cells were immediately washed with ice-cold PBS. Cells were lysed with ice-cold RIPA buffer containing 100 mM Tris pH 7.5, 150 mM NaCl, 1 mM EDTA, 1% deoxycholate, 1% Triton X-100, 0.1% SDS, 2 mM PMSF, one Complete-Mini protease inhibitor tablet (Roche, Indianapolis, Ind.; 1 tablet/7 ml of lysis buffer) and the phophatase inhibitors NaF (500 mM) and orthovanadate (1 mM). The cells were scraped and lysates transferred and centrifuged at 15,000 g for 10 min. Supernatants were transferred to new tubes and protein concentration was quantitated using the BCA protein reagent (Pierce, Rockford, Ill.). Cell lysates containing 20 μg of total protein were separated by 10% SDS-PAGE, transferred to nitrocellulose, and blocked in 5% milk in TBST. Anti phospho-ERK Thr 202/Tyr 204 (Cell Signaling, Beverly, Mass.), anti-phospho-MEK Ser217/221 (Cell Signaling), and c-Raf (BD Biosciences Pharmingen, San Diego, Calif.) used as primary antibodies were detected with horseradish peroxidase-conjugated goat anti-mouse or rabbit secondary antibodies and bands were visualized using the SuperSignal West Pico chemiluminescence reagent system (Pierce) and Kodak X-ray film (Rochester, N.Y.).

recombinant human raf1 = biological target: T1, recombinant human raf1 (Homo sapiens, UniProt P04049); assay: Raf1 direct kinase assay (KinaseGlo); assay type: biochemical; conditions: printed in the RAF-MEK column
T1 construct: purchased Upstate, Lake Placid, N.Y
T1 sequence (P04049 whole entry): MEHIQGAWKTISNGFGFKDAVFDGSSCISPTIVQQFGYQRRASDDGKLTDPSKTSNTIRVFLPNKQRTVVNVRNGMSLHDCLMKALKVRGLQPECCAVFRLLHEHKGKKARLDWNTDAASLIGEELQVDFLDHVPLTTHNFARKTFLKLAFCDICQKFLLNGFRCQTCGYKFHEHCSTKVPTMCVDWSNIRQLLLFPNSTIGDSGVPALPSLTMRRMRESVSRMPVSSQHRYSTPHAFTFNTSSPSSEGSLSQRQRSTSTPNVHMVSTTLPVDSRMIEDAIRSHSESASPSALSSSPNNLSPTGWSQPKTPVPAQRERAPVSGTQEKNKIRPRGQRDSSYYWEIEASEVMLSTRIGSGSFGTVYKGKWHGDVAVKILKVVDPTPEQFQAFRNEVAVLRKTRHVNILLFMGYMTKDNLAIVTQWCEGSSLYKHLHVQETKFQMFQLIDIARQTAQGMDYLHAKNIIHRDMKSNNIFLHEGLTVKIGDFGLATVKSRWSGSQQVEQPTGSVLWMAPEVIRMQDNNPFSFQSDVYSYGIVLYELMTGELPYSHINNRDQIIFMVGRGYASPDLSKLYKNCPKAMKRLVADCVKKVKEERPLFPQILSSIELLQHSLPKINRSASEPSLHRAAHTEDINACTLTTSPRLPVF
Description: The ability of compounds of general structure (A) of the present invention to inhibit the kinase activity of Raf1 was evaluated using two methods: a direct and a Raf1-MEK1 assay. In the direct assay, kinase reactions were conducted in 96-well plates by combining recombinant human raf1 (29.4 U/well, Upstate, Lake Placid, N.Y.), ATP (3 μM), myelin basic protein substrate (MBP, 1 mg/ml, Upstate, Lake Placid, N.Y.), and test agents (at concentrations ranging from about 1 nM/l to about 10 μM), in the presence of kinase reaction buffer. […] After reacting for 60 minutes at 30° C., residual ATP was measured using a luciferase-based assay (KinaseGlo, Promega Corp.) as a measure of kinase activity. Data from four wells were then averaged and used to determine IC50 values for the test compounds (Prism software package, GraphPad Software, San Diego Calif.).

[2] = biological target: T2, raf1 with inactive MEK1 (Raf1-MEK1) (Homo sapiens, UniProt P04049); assay: Raf1-MEK1 assay (KinaseGlo); assay type: biochemical; conditions: for IC50: Raf-Mek, 3 uM ATP, read-out: RAF-MEK assay (biochemical assay)
T2 construct: purchased Upstate, Lake Placid, N.Y
T2 sequence (P04049 306-648 limits assumed): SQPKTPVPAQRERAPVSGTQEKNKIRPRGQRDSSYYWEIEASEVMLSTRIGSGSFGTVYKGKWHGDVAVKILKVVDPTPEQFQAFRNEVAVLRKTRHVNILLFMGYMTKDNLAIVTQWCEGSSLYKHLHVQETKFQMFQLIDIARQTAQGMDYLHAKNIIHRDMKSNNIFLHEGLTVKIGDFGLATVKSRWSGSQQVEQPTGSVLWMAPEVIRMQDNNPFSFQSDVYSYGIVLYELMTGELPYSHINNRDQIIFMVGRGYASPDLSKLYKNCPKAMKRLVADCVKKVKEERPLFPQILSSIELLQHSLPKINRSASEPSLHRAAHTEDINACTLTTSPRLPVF

SMILES | IC50 (HUVECs) | Western Blot [1] | IC50 (recombinant human raf1) | IC50 [2] | window ([2]; window) | RAF-MEK assay (biochemical assay), result in words [2]
O=C(Nc1nnc2cc(Oc3ccnc(C(=O)NCCN4CCOCC4)c3)ccc2n1)c1ccc(OC(F)(F)F)cc1 [4-[3-(4-Trifluoromethoxy-benzoylamino)-benzo[1,2,4]triazin-7-yloxy]-pyridine-2-carboxylic acid (2-morpholin-4-yl-ethyl)-amide] | 1.48 µM | active at 5 uM |  |  |  | 
CNC(=O)c1cc(Oc2ccc3nc(Nc4ccc(Cl)cc4)nnc3c2)ccn1 [4-[3-(4-chloro-phenylamino)-benzo[1,2,4]triazin-7-yloxy]-pyridine-2-carboxylic acid methylamide trifluoroacetate salt] |  | not active at 5 uM | 0.077 µM | 10 to 50 µM | 100% | 
CNC(=O)c1cc(Oc2ccc3nc(NS(=O)(=O)c4ccc(Cl)s4)nnc3c2)ccn1 [4-[3-(5-chloro-thiophene-2-sulfonylamino)-benzo[1,2,4]triazin-7-yloxy]-pyridine-2-carboxylic acid methyl amide trifluoroacetate salt] |  | not active at 5 uM |  | > 50 µM |  | 
CNC(=O)c1cc(Oc2ccc3nc(NS(=O)(=O)c4cc(Cl)ccc4OC)nnc3c2)ccn1 [4-[3-chloro-6-methoxy-benzenesulfonylamino)-benzo[1,2,4]triazin-7-yloxy]-pyridine-2-carboxylic acid methyl amide trifluoroacetate salt] |  | not active at 5 uM |  | > 50 µM |  | 
O=C(Nc1nnc2cc(Oc3ccncc3)ccc2n1)c1ccc(OC(F)(F)F)cc1 [N-[7-(Pyridin-4-yloxy)-benzo[1,2,4]triazin-3-yl]-4-trifluoromethoxy-benzamide] | 7.38 µM | not active at 5 uM |  |  |  | 
CNC(=O)c1cc(Oc2ccc3nc(NC(=O)c4cccc(Cl)c4)nnc3c2)ccn1 [trifluoroacetate salt] |  | not active at 5 uM |  |  |  | flat
